These results are taken from patent US20260258471A1, “SYSTEMS AND METHODS FOR MICROCOLONY GROWTH AND MICROBIAL CELL CHARACTERIZATION” (priority 2018, published 2026).

Type in all cases: cell-based
The subject of test [1] is Candida albicans (ATCC 90028). Kind of test: LD-AST against fungal cells. Conditions: thin strip LD-AST; images at 3 and 4 hours, verified overnight. The method, then:
A series of LD-AST units having different levels of Amphotoricin B were prepared and tested against Candida albicans (ATCC 90028). […] Therefore, the MIC was determined to be 2 μg/mL. The conclusion of growth at the LD-AST unit corresponding to 1 μg/mL, though not easily noticed in FIG. 29 by visual inspection of t=3 and 4 incubation images, was verified by referring to the overnight incubation row in the figure.
To align imaging data acquired at different time points (2, 3, 4 and 5 hours after seeding), 2D-2D registration (only translation and rotation are permitted) with rigid transformation constrains was performed. The corresponding intensity feature points between the previous time point (tn-1 or tn-2) image, so-called reference, and each further image, so-called floating image, were automatically identified using the key-point detector SURF and used for aligning imaging date with respect to the reference data. Intensity features present at the reference image were classified as background while intensity features appearing on further images (cells/bugs) were classified as foreground. The position of given individual microcolonies have been marked in consecutive images. Setting the background allows enhanced detection of microcolonies and their growth.

Test [2] deals with Escherichia coli. Nature of the test: conventional microdilution methodology (reference). How it is done: (§1) Intermediate twofold dilutions of antimicrobial agents in broth (Tryptic soy, and in some cases Brain Heart Infusion). 100 μL of the antimicrobial agent/broth solutions were dispensed into each well of 96-well plates in triplicates. Then, to each well 10 μL of the 5×10^6 CFU/mL cell suspension, which was prepared according to the method of example 5, was added. The plate was sealed and placed in the incubator at 35-37° C. for 16-24 hours for MIC value to be determined.
(In broth dilution the organism is exposed to a series of concentrations in liquid medium.)

For test [3], the system named is Escherichia coli. Nature of the test: LD-AST (local diffusion antimicrobial susceptibility testing) on annular-disk microwell strips. The method, then:
In one case, an LD-AST test strip was fabricated following the method of Examples 9A and 10, coating different concentrations of Norfloxacin on the annular disks in 0-16 μg range. Three types of strips were prepared: low volume agar type with 80 μL of gel per microwell, medium volume agar type with 150 μL of gel per microwell, and high-volume agar type with 350 μL of gel per microwell. The corresponding gel thickness was respectively 2 mm, 4 mm, and 9 mm. The annular disks were then placed on the gels. The images of the microwell strip, for the case of low volume agar type, is presented in FIGS. 23A and 23B, where 220, 221, 222, and 223 respectively, refer to the drug impregnated annular disc, the drug exposure region, the guiding ring, and the gel. 1 μL of Escherichia coli cell suspension, which had been prepared according to the method of Example 12, was dispensed into the ROI of each LD-AST unit. The strips were incubated at 37° C. and their ROI were imaged by an epi-illuminated microscope having a 5× objective once every hour. These images are presented in FIGS. 24A-24C (low volume gel), 25A-C (medium volume gel), and 26A-C (high volume gel) for incubation times of t=3hours, t=4hours and t=overnight, respectively.
The labels in FIGS. 24A-24C show the mass of the of the antimicrobial agent that was coated on the annular disk during preparation. […] Despite this time variation, an effective antimicrobial agent concentration may be associated with each microwell. This effective antimicrobial agent concentration may be estimated, for example, by modeling the diffusion of the antimicrobial agent, as in FIG. 21A, or, for example, by comparing the results of the LD-AST assay to a reference assay such as broth microdilution assay.
In the case of low volume gels (FIG. 24A-24C), since the antimicrobial agent is expected rapidly and efficiently diffuse throughout the volume of the solid phase growth medium, and since it is expected that the antimicrobial agent diffuses nearly completely from the annular disk, the effective antimicrobial agent concentration may be estimated by dividing the mass of the antimicrobial agent that was provided on the annular disk by the volume of the gel. […] Accordingly, the effective antimicrobial agent concentration for the case low-volume gels of FIGS. 24A-24C was estimated to be 0.25 times of the drug mass that was impregnated on the disk. For instance, the drug concentration at the drug exposure region of the annular disk loaded by 16 μg of Norfloxacin is 4 μg/mL.
Comparing FIGS. 24B and 24C, one can observe (or computationally determine) that for the LD-AST unit labeled by 0.5 μg (having an estimated effective concentration of 0.1 μg/ml), there appears to be a lack of visible growth between 3 and 4 hours of incubation. This halting in growth was verified by imaging the ROIs after overnight culture, as illustrated in FIG. 24C. As a result, the MIC value for this test was estimated as 0.1 μg/mL. […]
FIG. 25A-25C and 26A-26C, respectively, correspond to intermediate volume (gel volume of 150 μL in microwell) and high volume (gel volume of 350 μL in microwell) cases. In these cases, due to the larger temporal variation in concentration during incubation, an effective antimicrobial agent concentration may be determined by correlating the observed results with a reference microdilution assay. […]

Test [4] concerns Escherichia coli. Nature of the test: Vitek 2 (Biomerieux) reference AST.
The subject of test [5] is Staphylococcus aureus. Kind of test: LD-AST on annular-disk microwell strips.
Experimental: In this case, the cell proliferation at the borderline LD-AST unit, such as the one labeled 12 μg, would be preferably determined by image processing. For example, time-lapse microscopic images can be acquired are aligned and difference images (obtained via subtraction of aligned images) may be processed to detect evidence of growth.
In order to further illustrate the insensitivity of the LD-AST to variations of the antimicrobial agent concentration at the ROIs during the first hour of the assay, the assay was performed in two different protocols; a first direct protocol involving immediate inoculation of the microbial cell suspension after contacting the annular disks with the solid phase growth medium, and a second delayed protocol in which the microbial cell suspension was inoculated 1 hour after contacting the annular disks with the solid phase growth medium.
Blank AST paper disks (Hardy Diagnostics, Z7121) that were 6.35 mm in diameter and 0.75 mm thick, were modified to include a 3 mm hole in the center.
Each paper disk has the capacity to absorb approximately 20 μL of liquid before being saturated. For each antibiotic, a two-fold serial dilution in water was made which included concentrations near its suspected MIC value. The disks were separated into individual wells of a 96-well microplate, and then 20 μL of each antibiotic dilution was pipetted over paper disks ensuring that the entire disk was evenly wetted. After incubation for about 20 minutes at room temperature, the disks in the microplate were dried in vacuum desiccator. Alternatively, individual disk separated in the microplate well could be soaked in an excess volume (30 to 50 μL) of the antibiotic dilution. After incubation, the excess fluid is removed by pipette and dried in a vacuum desiccator. The microplate was then covered with an adhesive cover and stored at 4° C.
Tryptic soy agar blood base (Hardy Diagnostics C5221) was prepared with 1% defibrinated sheep's blood according to the manufacturer. While the agar was still warm (45 to 50° C.), it was pipetted into the wells of an 12×8-well strip plate. For “Thin-gel” case, approximately 50 μL of agar was dispensed into an individual well to give a gel thickness of ~1 mm. For the “mid-thick gel” case, approximately 150 μL of agar was dispensed to gel a gel thickness of ~3 mm. Finally, for the “thick gel” case, approximately 350 μL of agar was dispensed to gel a gel thickness of ~7 mm. The agar gels were then cooled to room temperature to solidify, and then either used immediately or stored at 4° C. with an adhesive cover over the wells to prevent gel drying. […]
For the next test, the system named is S. aureus. Nature of the test: antimicrobial dilution pipetted directly onto thin-type gel microwells (no annular disk). The following applies: Staphylococcus aureus; 20 μL of two-fold dilutions pipetted onto thin-type microwells; 37° C. until control colonies visible. The method, then: In order to verify the observed difference between the MIC for the low-volume gel and the typical MIC values reported by EUCAST for S. aureus and Vancomycin was not caused by the geometry of the annular disk and its corresponding diffusion dynamics, the following experiment was performed. A two-fold serial dilution of the target antimicrobial agent was prepared in water. Then 20 μL of each dilution was pipetted onto the surface of “thin-type” microwells that were prepared according to the method of Example 10. After about 10 minutes, the antimicrobial agent solution had diffused into top of the gel. 1 μL of a microbial cell suspension was then added and together they were incubated at 37° C. until the microbial colonies at the control well (zero antimicrobial agent concentration) were visible. The MIC found in this manner was 3 μg/mL.

Test [6] concerns Staphylococcus aureus. Kind of test: Vitek 2 reference AST.
Test [7] has as its system Staphylococcus aureus. Kind of test: broth microdilution AST according to Example 11. How it is done: as §1
Test [8] deals with Methicillin-resistant Staphylococcus aureus (MRSA 111 with not strong resistance). Kind of test: thin strip type LD-AST on clean suspension and positive blood culture. The method, then: Methicillin-resistant Staphylococcus aureus (MRSA 111 with not strong resistance) was spiked into 10 mL of whole blood samples at the nominal concentration of 5-10 CFU/ml. Then, an FA Plus aerobic blood culture bottles were inoculated with 10 mL of spiked whole blood and incubated at 37° C. until the culture turns positive. At this time, 30 μL of glycerol stock of the bacterial cell was inoculated in 3 mL of TSB and incubated at 37° C. for 3 hr with shaking at 150 rpm. Based on OD measurements, serial dilutions of the respective bacteria were prepared in TSB at a nominal concentration of 10^5 CFU/mL. An aliquot of the positive blood sample was diluted in TSB by 1000-fold. The two samples were simultaneously tested for susceptibility against Oxacillin with “thin strip” type LD-AST. The results, which are presented in FIG. 30, indicate similar MIC value of 1 μg/mL.

Values after ≈ are worked out from the molar mass of the structure shown.

In test [1], Amphotoricin B registered an MIC of 2 mg/L.

In the case of `CCn1cc(C(=O)O)c(=O)c2cc(F)c(N3CCNCC3)cc21` [Norfloxacin], the MIC value with Escherichia coli [2] was 0.1 mg/L (≈ 0.313 µM). Besides, the MIC is 0.1 mg/L (≈ 0.313 µM) with Escherichia coli [3] (Escherichia coli, low volume gel strip, no growth between 3 and 4 hours of incubation, verified overnight, read-out: MIC value (estimated effective concentration)); not above 0.5 mg/L with Escherichia coli [4] (Escherichia coli, read-out: MIC value reported by Vitek 2). Moreover, in the test with Escherichia coli [3] (LD-AST MIC, low volume gel), the “classification of MIC per CLSI/EUCAST interpretation standards” value is given as “S”. Further, the “antimicrobial mass label of the microwell at which microbial growth halts” value in the test with Escherichia coli [3] (high volume (gel volume of 350 μL in microwell)) and in the test with Escherichia coli [3] (intermediate volume (gel volume of 150 μL in microwell)) was 1 µg in each case. Besides, the “antimicrobial mass coated on annular disk of the LD-AST unit showing lack of visible growth” value in the test on Escherichia coli [3] (low volume gel, between 3 and 4 hours of incubation) stood at 0.5 µg. In addition, the “susceptibility category reported by Vitek 2” value in the test with Escherichia coli [4] was “S”.

Consider `CN[C@H](CC(C)C)C(=O)N[C@H]1C(=O)N[C@@H](CC(N)=O)C(=O)N[C@H]2C(=O)N[C@H]3C(=O)N[C@H](C(=O)N[C@H](C(=O)O)c4cc(O)cc(O)c4-c4cc3ccc4O)[C@H](O)c3ccc(c(Cl)c3)Oc3cc2cc(c3O[C@@H]2O[C@H](CO)[C@@H](O)[C@H](O)[C@H]2O[C@H]2C[C@](C)(N)[C@H](O)[C@H](C)O2)Oc2ccc(cc2Cl)[C@H]1O` [Vancomycin], for which the “classification of MIC per CLSI interpretation standards” value in the test on Staphylococcus aureus [5] (LD-AST MIC, thin type) was “I”. Also, in the test with Staphylococcus aureus [5] (mid-thick strip, 4 hours after inoculation (FIG. 28)), the “MIC, direct protocol versus delayed (1 hour) inoculation protocol” value is “equal”. The “growth at borderline LD-AST unit (difference image of time-lapse images)” value with Staphylococcus aureus [5] (mid-thick type, unit labeled 12 μg, verified by overnight incubation) is recorded as “continued to grow”. Also, the MIC value with Staphylococcus aureus [5] (thin type LD-AST unit (FIG. 27A), 3 and 4 hours incubation) came out at 3 mg/L (≈ 2.07 µM). The MIC against S. aureus is 3 mg/L (≈ 2.07 µM); in the test on Staphylococcus aureus [6] (Staphylococcus aureus, read-out: MIC value from Vitek 2) it was 1 mg/L (≈ 0.69 µM); with Staphylococcus aureus [7] (Staphylococcus aureus, broth microdilution, Example 11), 1.5 mg/L (≈ 1.04 µM). Moreover, the “susceptibility category from Vitek 2” value in the test with Staphylococcus aureus [6] is reported as “S”. Further, in the test with Staphylococcus aureus [7] (broth microdilution MIC), the “classification of MIC according to CLSI” value was “S”.

Turning to `Cc1onc(-c2ccccc2)c1C(=O)N[C@@H]1C(=O)N2[C@@H]1SC(C)(C)[C@@H]2C(=O)O` [Oxacillin], the MIC in [8] (Staphylococcus aureus, MRSA, clean cell suspension in TSB, nominal 10^5 CFU/mL) was found to be 1 mg/L (≈ 2.49 µM). Moreover, the MIC value in [8] (positive blood culture diluted in TSB by 1000-fold) turned out to be 1 mg/L (≈ 2.49 µM).
